How the values were obtained:
Experiment in all cases: relative viability (nuclei count vs DMSO), 5 days (fraction); higher = more cells survive
Lapatinib + Decitabine = compound: CS(=O)(=O)CCNCc1ccc(-c2ccc3ncnc(Nc4ccc(OCc5cccc(F)c5)c(Cl)c4)c3c2)o1 [Lapatinib] + Nc1ncn([C@H]2C[C@H](O)[C@@H](CO)O2)c(=O)n1 [Decitabine] (partner 2 µM)
Summary of the method: (§1)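 Relative viability was taken as the ratio of nuclei in treated wells to nuclei in vehicle wells. Lung cancer cell lines in 1536-well plates received compounds by pin tool one day after seeding, either one drug alone or a fixed anchor-drug dose plus five library-drug doses (not always all listed) in √10 steps. Nuclei were counted on 4× images after 5 days of treatment, and values are medians of duplicate plates.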

Wnt-C59 + Dasatinib = compound: CC1=NC=CC(=C1)C2=CC=C(C=C2)CC(=O)NC3=CC=C(C=C3)C4=CN=CC=C4 [Wnt-C59] + Cc1nc(Nc2ncc(C(=O)Nc3c(C)cccc3Cl)s2)cc(N2CCN(CCO)CC2)n1 [Dasatinib] (partner 0.075 µM)
Summary of the method: as §1

Lapatinib + Navitoclax = compound: CS(=O)(=O)CCNCc1ccc(-c2ccc3ncnc(Nc4ccc(OCc5cccc(F)c5)c(Cl)c4)c3c2)o1 [Lapatinib] + CC1(C)CCC(c2ccc(Cl)cc2)=C(CN2CCN(c3ccc(C(=O)NS(=O)(=O)c4ccc(N[C@H](CCN5CCOCC5)CSc5ccccc5)c(S(=O)(=O)C(F)(F)F)c4)cc3)CC2)C1 [Navitoclax] (partner 0.5 µM)
Summary of the method: as §1

Lapatinib + Olaparib = compound: CS(=O)(=O)CCNCc1ccc(-c2ccc3ncnc(Nc4ccc(OCc5cccc(F)c5)c(Cl)c4)c3c2)o1 [Lapatinib] + O=C(c1cc(Cc2n[nH]c(=O)c3ccccc23)ccc1F)N1CCN(C(=O)C2CC2)CC1 [Olaparib] (partner 8 µM)
Summary of the method: as §1

| Cell Line | relative viability (Lapatinib + Decitabine; first compound 0.02 µM) | relative viability (Lapatinib + Decitabine; first compound 0.06325 µM) | relative viability (Lapatinib + Decitabine; first compound 0.2 µM) | relative viability (Lapatinib + Decitabine; first compound 0.6325 µM) | relative viability (Lapatinib + Decitabine; first compound 2 µM) | relative viability (Wnt-C59 + Dasatinib; first compound 0.001 µM) | relative viability (Wnt-C59 + Dasatinib; first compound 0.01 µM) | relative viability (Wnt-C59 + Dasatinib; first compound 0.03162 µM) | relative viability (Wnt-C59 + Dasatinib; first compound 0.1 µM) | relative viability (Lapatinib + Navitoclax; first compound 0.02 µM) | relative viability (Lapatinib + Navitoclax; first compound 0.06325 µM) | relative viability (Lapatinib + Navitoclax; first compound 0.2 µM) | relative viability (Lapatinib + Navitoclax; first compound 0.6325 µM) | relative viability (Lapatinib + Navitoclax; first compound 2 µM) | relative viability (Lapatinib + Olaparib; first compound 0.02 µM) | relative viability (Lapatinib + Olaparib; first compound 0.06325 µM) | relative viability (Lapatinib + Olaparib; first compound 0.2 µM) | relative viability (Lapatinib + Olaparib; first compound 0.6325 µM) | relative viability (Lapatinib + Olaparib; first compound 2 µM) |
| --- | --- | --- | --- | --- | --- | --- | --- | --- | --- | --- | --- | --- | --- | --- | --- | --- | --- | --- | --- |
| NCI-H1651 | 0.466 | 0.608 | 0.605 | 0.633 | 0.484 | 0.385 | 0.421 | 0.405 | 0.447 | 1.05 | 0.968 | 0.971 | 0.899 | 0.906 | 0.193 | 0.183 | 0.181 | 0.197 | 0.178 |
| NCI-H1666 | 0.599 | 0.72 | 0.709 | 0.641 | 0.58 | 0.803 | 0.84 | 0.836 | 0.795 | 0.794 | 0.724 | 0.737 | 0.464 | 0.217 | 0.761 | 0.776 | 0.743 | 0.703 | 0.719 |
| NCI-H1734 |  | 0.435 | 0.506 | 0.552 | 0.432 | 0.418 | 0.452 | 0.516 | 0.442 |  | 0.691 | 0.802 | 0.88 | 0.778 |  | 0.54 | 0.62 | 0.593 | 0.586 |
| NCI-H1755 | 0.738 | 0.752 | 0.706 | 0.735 | 0.749 | 0.429 | 0.405 | 0.436 | 0.41 | 0.974 | 1.02 | 0.97 | 1.01 | 0.936 | 0.855 | 0.837 | 0.885 | 0.882 | 0.815 |
| NCI-H1792 |  |  | 0.555 | 0.509 | 0.388 | 0.753 | 0.771 | 0.992 | 0.718 | 0.615 | 0.589 | 0.52 | 0.586 | 0.645 |  |  | 0.377 | 0.342 | 0.351 |
| NCI-H1793 |  | 0.404 | 0.418 | 0.424 | 0.44 | 0.431 |  | 0.468 | 0.355 |  |  |  | 0.329 | 0.292 |  | 0.363 | 0.598 | 0.537 | 0.449 |
| NCI-H1915 |  | 0.284 | 0.248 | 0.253 | 0.255 | 0.315 | 0.316 | 0.303 | 0.317 |  | 0.822 | 0.752 | 0.79 | 0.81 |  | 0.277 | 0.275 | 0.243 | 0.237 |
| NCI-H1944 | 0.421 | 0.41 | 0.431 | 0.394 | 0.414 | 0.24 | 0.218 | 0.195 | 0.179 |  |  | 0.885 | 0.864 | 0.789 | 0.397 | 0.389 | 0.381 | 0.354 | 0.327 |
| NCI-H1975 | 0.374 | 0.413 | 0.389 | 0.397 | 0.312 | 0.412 | 0.31 | 0.349 | 0.447 | 0.993 | 1.09 | 1.04 | 0.918 | 0.867 | 0.85 | 0.771 | 0.772 | 0.76 | 0.503 |
| NCI-H1993 | 0.68 |  | 0.555 | 0.64 | 0.462 | 0.601 |  | 0.631 | 0.631 | 0.831 |  | 0.618 | 0.69 | 0.51 | 0.961 |  | 0.901 | 0.965 | 0.661 |
| NCI-H2009 | 0.383 | 0.4 | 0.342 | 0.353 | 0.357 | 0.31 | 0.331 | 0.311 | 0.311 | 1.11 | 1.21 | 1.21 | 1.17 | 1.14 | 0.666 | 0.712 | 0.694 | 0.696 | 0.567 |
| NCI-H2023 | 0.22 | 0.229 | 0.224 | 0.235 | 0.223 | 0.563 | 0.538 | 0.628 | 0.333 | 0.95 | 0.885 | 0.894 | 1 | 0.77 | 0.435 | 0.455 | 0.436 | 0.444 | 0.397 |
| NCI-H2085 | 0.579 | 0.528 | 0.512 | 0.521 | 0.477 | 0.282 | 0.236 | 0.269 | 0.249 | 1.06 | 0.925 | 0.987 | 1.01 | 0.805 | 0.744 | 0.795 | 0.8 | 0.711 | 0.581 |
| NCI-H2087 | 0.26 | 0.164 | 0.251 | 0.228 | 0.234 | 0.733 | 0.868 | 0.943 | 0.806 | 0.932 | 0.96 | 1.06 | 1 | 0.962 | 0.56 | 0.412 | 0.625 | 0.516 | 0.503 |
| NCI-H2126 | 0.609 | 0.52 | 0.593 | 0.548 | 0.44 | 0.658 | 0.592 | 0.647 | 0.61 |  | 0.799 | 0.764 | 0.806 | 0.739 | 0.933 | 0.757 | 0.894 | 0.825 | 0.794 |
| NCI-H2170 | 0.503 | 0.459 | 0.477 | 0.429 | 0.182 | 0.549 | 0.354 | 0.601 | 0.555 | 0.546 | 0.393 | 0.287 | 0.218 | 0.184 | 0.564 | 0.483 | 0.501 | 0.459 | 0.118 |
| NCI-H2347 | 0.573 | 0.514 | 0.642 | 0.605 | 0.599 | 0.35 | 0.295 | 0.327 | 0.306 | 0.548 | 0.807 | 0.826 | 0.731 | 0.769 | 0.636 | 0.568 | 0.598 | 0.629 | 0.527 |
| NCI-H2405 |  | 0.602 |  | 0.709 | 0.616 | 0.207 | 0.232 | 0.221 | 0.233 |  | 0.769 | 0.868 | 0.881 | 0.72 |  | 0.763 |  | 0.854 | 0.754 |

Source: the supplement of paper PMC10307832
